The source of these data is patent US12076394B2, “Cytosolic delivery of peptides using protein transduction domain mimics” (University of Massachusetts, priority 2020, dated 2024).

Data set [1] concerns whole blood. Description: Inflammatory cytokine panel (cytometric bead array) after co-delivery of SIINFEKL and CpG into whole blood. The settings on record: 24 hours after 60-minute treatment.
Method: (§1) A multi-analyte inflammatory cytokine panel was used to understand the immune response when CpG was added to the complexes. GpC, a nonfunctional analogue of CpG, was included as a negative control to preclude the role of nonspecific TLR9 activation during incubation. At 24 hours, following the 60-minute treatment with the non-covalent polymer-[sequence]-CpG complexes, supernatants from whole blood were tested the inflammatory cytokines: IL-1β, IFN-α, IFN-γ, TNF-α, MCP-1, IL-6, IL-8, IL-10, IL-12p70, IL-17A, IL-18, IL-23, and IL-33.
(§2) Whole human blood was obtained from healthy volunteers under signed consent in Roche Vacutainers containing hirudin. In all cases, blood was used within 10 minutes of the tapping from the donor. The blood was distributed into Eppendorf tubes containing preassembled polymer preparations in RPMI 1640 with no supplements and incubated up to 1 hour at 37° C. on rotation (60 RPM). In general, 400 μL of blood was combined with 100 μL of polymer complex prepared in RPMI 1640 for a final volume of 500 μL.
(§3) After one hour of incubation with treatment as reported under cell preparation and culture, cells were pelleted at 400 g for 2 minutes and supernatant was removed. […] Cytokine production was detected using the human inflammation cytometric bead array Legendplex™ from BioLegend® (740118).
Data set [2] has as its system whole blood.
Method: as §1, §2, §3
For data set [3], the system named is bone marrow derived dendritic cells. In words: Delivery into bone marrow derived dendritic cells, flow cytometry. The class given is cell-based, mouse. As to conditions: 1 μM antigen, free or with PTDM at 1:10, 4 hours. As to the method: To test SIINFEKL delivery and presentation for T cell activation, bone marrow derived dendritic cells were differentiated from B56 mouse bone marrow for 6 days in the presence of 20 ng/mL mouse GM-CSF. After 6 days, cells were harvested and treated with 1 μM fluorescently labeled SIINFEKL or OVA both free and in complex with PTDM molar ratio of 1:10 for 4 hours.
Immature dendritic cells were differentiated from murine bone marrow according to established protocols. (Dewitte, et al. J. Control. Release 2014, 195, 138-146.) RBCs were lysed using BioLegend® lysis buffer and cells were plated at a density of 2×10^5 cells/mL in complete RPMI (listed under cell lines) with the addition of 20 ng/mL recombinant mouse GM-CSF. Cells were cultured for 6 days with the addition of 10 mL fresh media and cytokines on day 3. Non-adherent and loosely adherent cells were harvested on day 6 and cells were pelleted, counted, and plated at a density of 2×10^6 cells/mL.
THP-1 monocytes, immature dendritic cells, and bone marrow derived dendritic cells were analyzed using a BD LSR Fortessa 20X flow cytometer with five lasers and 18 channels. […] Only cells negative for 7-AAD were assessed for either uptake or presentation of markers. Multi-color flow cytometric analysis spectral overlap was corrected by appropriate compensation and analyzed using FlowJo 10.2 (v3.05470) by Tree Star, Ashland, OR, USA.
In general terms: In flow cytometry, cells or beads pass a laser one at a time.

The test system of data set [4] is whole blood. In words: Delivery of FAM labeled SIINFEKL into whole blood (time and concentration survey), flow cytometry. The data set is classed as cell-based, human. As to conditions: molar ratio 1:10; 15, 30, 45 or 60 minutes; free peptide 60 minutes. As to the method: The specificity of the polymer-antigen complex uptake by monocytes was tested in whole blood. FAM (Fluorescein Amidites) labeled SIIFNEKL was delivered into whole blood using Me-Ph10-b-dG5 at a molar ratio of 1:10, for 15, 30, 45, or 60 minutes to investigate the kinetics of uptake. MFI and uptake in monocytes were not statistically different regardless of the incubation time. Additionally, complex uptake was compared with free SIINFEKL-FAM allowed to incubate with whole blood for 60 minutes.
FAM labeled SIINFEKL was delivered into whole blood using Me-Ph10-b-dG5 at a molar ratio of 1:10 at increasing peptide concentrations (0.25, 0.5, 1, and 2 μM).
After incubation, cells were pelleted at 200 g for 5 minutes and the supernatant was removed. Red blood cells were lysed in using BD Pharm lysis buffer and subsequently washed with 1% FBS in PBS twice before staining with antibodies. Unspecific binding was blocked for 10 minutes using human or mouse IgG respectively. Antibody surface staining was performed using Human CD14-APC, CD4O-PE, CD80-AF488, CD86-BV711, CD209-APC, HLA-DR-APC-Cy7, or mouse CD11c-AF488, CD86-AF647, HLA-DR, H-2K^b-PE as indicated by manufacturer (BD® or BioLegend®). […]

Like-named read-outs stand apart in the source and are kept apart here. Where no end group is shown, it is not given here. FAM = Fluorescein Amidites label

In the case of `CC[C@H](C)[C@H](NC(=O)[C@@H](NC(=O)[C@@H](N)CO)[C@@H](C)CC)C(=O)N[C@@H](CC(N)=O)C(=O)N[C@@H](Cc1ccccc1)C(=O)N[C@@H](CCC(=O)O)C(=O)N[C@@H](CCCCN)C(=O)N[C@@H](CC(C)C)C(=O)O` [SIINFEKL], the “inflammatory cytokine response, in words” value in data set [1] is “no increase in inflammatory response”.
With Me-Ph10-b-dG5 [PTDM], the “inflammatory cytokine response, in words” value in data set [2] is “did not induce the production of inflammatory cytokines”.
With “OVA: ovalbumin protein, fluorescently labeled, free antigen”, in data set [3], the “uptake of fluorescently labeled SIINFEKL or OVA” value is reported as “significantly less uptake”.
Take “SIINFEKL-FAM: FAM (Fluorescein Amidites) labeled SIINFEKL, free peptide (SIINFEKL-{FAM})”: the “uptake of FAM labeled SIINFEKL by leukocytes, time survey” value in data set [4] is given as “not readily taken up”.
